Laboratory results: PMC6222646, “HIV-1 Integrase-Targeted Short Peptides Derived from a Viral Protein R Sequence” (Molecules : A Journal of Synthetic Chemistry and Natural …, 2018)
Where “and” joins values, the source holds several entries; their conditions need not be identical. Equal values may be shown once. Where a SMILES comes first, the peptide text is derived from it. [ ]: non-standard residue; d: D form. Bpa = N[C@@H](Cc1ccc(C(=O)c2ccccc2)cc1)C(=O)O

Assays:
IN = system: IN; parameters: method as in PMID 17490682; settings: read-out: IN ST-inhibitory potency IC50; cited from earlier work
HIV-1 integrase (IN) [1] = target: T1, HIV-1 integrase (IN) (Human immunodeficiency virus type 1 group M subtype B, UniProt P12497); assay: In vitro integrase catalytic assay, 3'-processing (3'-P); assay type: biochemical; settings: 400 nM IN, 20 nM 32P-labeled 21T/21B DNA, 37 °C, 2 h
Description: (§1) IN reactions were performed as previously described. […] Reactions were performed at 37 °C (2 h) and quenched by the addition of an equal volume of loading buffer (formamide containing 1% sodium dodecyl sulfate, 0.25% bromophenol blue, and xylene cyanol). Reaction products were separated in 16% polyacrylamide denaturing sequencing gels. Dried gels were visualized using a Typhoon 8600 instrument (GE Healthcare, Chicago, IL, USA). Densitometric analyses were performed using ImageQuant 5.1 software (GE Healthcare, Chicago, IL, USA). Data analyses (linear regression, 50% inhibitory concentration [IC50] determination, standard deviation [SD]) were performed from at least 3 independent determinations using Prism 5.0c software from GraphPad (La Jolla, CA, USA). To assay 3′-P inhibitory potency, reactions were carried out with [γ-^32P]-labeled full-length oligonucleotide 21T ([…]) annealed to the complementary oligonucleotide 21B ([…]). Formation of the shorter processed 19T products was monitored and quantified to assess enzyme performance and inhibitor potency. The ST reactions were carried out with the [γ-^32P]-labeled pre-cleaved oligonucleotide 19T ([…]) annealed to the complementary oligonucleotide 21B ([…]) and formation of integration products (longer and slower migrating than the starting 19T substrate) was monitored to assess enzyme performance and inhibitor potency.

HIV-1 integrase (IN) [2] = target: T1, HIV-1 integrase (IN); assay: In vitro integrase catalytic assay, strand transfer (ST); assay type: biochemical; settings: 400 nM IN, 20 nM 32P-labeled pre-cleaved 19T/21B DNA, 37 °C, 2 h
Description: as §1

[3] = system: 21-mer duplex DNA substrate (21T/21B); assay: Binding to DNA substrate alone by fluorescence anisotropy; settings: absence of IN; concentrations up to 37 µM
Description: (§2) DNA binding was measured using a plate-based assay following fluorescence polarization of a fluorescent 21-mer duplex DNA substrate (21T/21B duplex oligonucleotide) with an AlexaFluor 488 modification at the 5′-end of the 21T oligonucleotide. Peptide or DMSO (control, without peptide) were incubated at room temperature for 5 min in the IN-activity buffer in the absence or the presence of IN (400 nM). After addition of the DNA (10 nM), fluorescence anisotropy was measured every 30 s for 30 min using an Envision plate reader (Perkin Elmer, Waltham, MA, USA).

IN-DNA complex = IN-DNA complex (Human immunodeficiency virus type 1 group M subtype B, UniProt P12497); assay: IN-DNA complex formation by fluorescence anisotropy; assay type: binding, HIV-1; settings: IN (400 nM) preincubated with peptide, 10 nM DNA
Description: as §2

HIV-1 IN [4] = target: T2, HIV-1 IN (Human immunodeficiency virus type 1 group M subtype B, UniProt P12497); assay: HTRF-based IN multimerization assay; assay type: biochemical; parameters: WT HIV-1 IN recombinant proteins with His or FLAG tags; made in house; host or cells: Escherichia coli; settings: 100 µM peptide
Description: WT HIV-1 IN recombinant proteins with His or FLAG tags were expressed in Escherichia coli and purified as described previously. The His6–tagged IN construct was purified by loading the cell lysate onto a Nickel-Sepharose column (GE Healthcare, Chicago, IL, USA) and eluting bound integrase with an imidazole gradient in a 50 mM HEPES (pH 7.5) buffer containing 1 M NaCl, 7.5 mM CHAPS, 2 mM beta-mercaptoethanol. Peak fractions were pooled, diluted and loaded onto a heparin column (GE Healthcare), and integrase was eluted with an increasing NaCl gradient in a 50 mM HEPES (pH 7.5) buffer containing 7.5 mM CHAPS and 2 mM beta-mercaptoethanol. The FLAG-tagged IN construct was purified by loading the ammonium sulfate precipitate of cell lysate onto a phenyl-Sepharose column (GE Healthcare) and eluting bound integrase with a decreasing ammonium sulfate gradient in a 50 mM HEPES (pH 7.5) buffer containing 200 mM NaCl, 7.5 mM CHAPS, 2 mM beta-mercaptoethanol. Peak fractions were pooled and loaded onto a heparin column (GE Healthcare), and integrase was eluted with an increasing NaCl gradient in a 50 mM HEPES (pH 7.5) buffer containing 7.5 mM CHAPS and 2 mM beta-mercaptoethanol. […] The HTRF signal was recorded using a PerkinElmer EnSpire multimode plate reader.

HIV-1 IN [5] = target: T2, HIV-1 IN; assay: UV photo-crosslinking to IN with Western blot detection; assay type: binding; settings: 15 (111 µM), IN (3.2 µM)
Description: Peptide 15 (111 µM), containing a photo-reactive Bpa group and a biotin linked to its amino terminus, was incubated for 2 h at 37 °C in the absence or the presence of IN (3.2 µM) before UV irradiation (5 min at […]). After adding 2 × 10 µL of loading buffer, samples were heat-denatured at 95 °C (5 min). Products were separated on 16% SDS-PAGE and transferred to a PVDF membrane using an iBlot system (Invitrogen, Carlsbad, CA, USA). […] Reading was performed using an Odyssey® Infrared Imaging System (LI-COR Biotechnology, Lincoln, NE, USA).

| Compound | IC50 (IN) | IC50 (HIV-1 integrase (IN) [1]) | IC50 (HIV-1 integrase (IN) [2]) | Binding to DNA substrate alone [3] | Effect on IN-DNA complex formation (fluorescence polarization) (IN-DNA complex) | Induction of higher-order IN multimerization (HTRF signal) (HIV-1 IN [4]) | Covalent crosslinking to IN upon UV irradiation (HIV-1 IN [5]) |
| --- | --- | --- | --- | --- | --- | --- | --- |
| QQLLFIHFRIGCQHS [Vpr (65–79)] | 14 µM |  |  |  |  |  |  |
| CC[C@H](C)[C@H](NC(=O)[C@H](CCCNC(=N)N)NC(=O)[C@H](Cc1ccccc1)NC(=O)[C@H](Cc1c[nH]cn1)NC(=O)[C@@H](NC(=O)[C@@H](N)Cc1ccccc1)[C@@H](C)CC)C(=O)NCC(=O)O [Peptide 1a, FIHFRIG] (H-FIHFRIG-OH) |  | 17.6 ± 1.2 µM | 1 µM and 1.3 µM | no detectable binding | did not block the IN–DNA interactions, but rather promoted IN–DNA complex formation | did not induce higher-order IN multimerization |  |
| Biotin-linker-BIHFRIG [Peptide 15] |  | 32 ± 7 µM | 2.3 ± 0.3 µM |  |  |  | covalent adducts of 15 with IN |
| CC[C@H](C)[C@H](NC(=O)[C@H](CCCNC(=N)N)NC(=O)[C@H](Cc1ccccc1)NC(=O)[C@H](Cc1c[nH]cn1)NC(=O)[C@H](Cc1ccc(C(=O)c2ccccc2)cc1)NC(=O)[C@@H](N)Cc1ccccc1)C(=O)NCC(=O)O [Peptide 13a, FBHFRIG] (H-F[Bpa]HFRIG-OH) |  | 37 ± 5 µM | 20 ± 3 µM |  |  |  |  |
| CC[C@H](C)[C@H](NC(=O)[C@H](CCCNC(=N)N)NC(=O)[C@H](Cc1ccccc1)NC(=O)[C@H](Cc1c[nH]cn1)NC(=O)[C@@H](NC(=O)[C@@H](N)Cc1ccc(C(=O)c2ccccc2)cc1)[C@@H](C)CC)C(=O)NCC(=O)O [Peptide 14a, BIHFRIG] (H-[Bpa]IHFRIG-OH) |  | 7.2 ± 1.2 µM | 2.1 ± 0.3 µM |  |  |  |  |
